# Results reported in patent US11008572B2, “Methods and compositions for modulating splicing” (SKYHAWK THERAPEUTICS, INC., priority 2017, dated 2021).
# Tested on: A-673 cells
# Assay: Cell viability, crystal violet staining
# Assay type: cell-based
# Settings: Homo sapiens, A673, cell viability, read-out: A-673 IC50 (nM) Cell viability
# Experimental: To measure cell viability, cells were plated in 96-well plastic tissue culture plates at a density of 5×10^3 cells/well. Twenty-four hours after plating, cells were treated with various SMSMs. After 72 hours, the cell culture media were removed and plates were stained with […] of a solution containing 0.5% crystal violet and 25% methanol, rinsed with deionized water, dried overnight, and resuspended in […] citrate buffer (0.1 M sodium citrate in 50% ethanol) to assess plating efficiency. Intensity of crystal violet staining, assessed at 570 nm and quantified using a Vmax Kinetic Microplate Reader and Softmax software (Molecular Devices Corp., Menlo Park, Calif.), were directly proportional to cell number. Data were normalized to vehicle-treated cells and were presented as the mean±SE from representative experiments. SMSMs that are effective were determined for various cells lines.
# A-673 cell viability […], splicing (IC50) and brain AUC/Plasma AUC of SMSMs were determined. As shown in the tables below SMSMs had high CNS exposure.
row,Molecule,IC50
1,"CN(c1ccc(-c2ccc(-n3cc(C#N)cn3)cc2O)nn1)[C@H]1C[C@]2(C)CC[C@](C)(C1)N2 [compound 200, 1-(4-(6-(((1R,3s,5S)-1,5-dimethyl-8-azabicyclo[3.2.1]octan-3-yl)(methyl)amino)pyridazin-3-yl)-3-hydroxyphenyl)-1H-pyrazole-4-carbonitrile]",101 to 250 nM
2,"CN(c1ccc(-c2ccc(-c3cn[nH]c3)cc2O)nn1)[C@@H]1C[C@]2(C)COC[C@](C)(C1)N2 [compound 157, 2-(6-(((1R,5S,7s)-1,5-dimethyl-3-oxa-9-azabicyclo[3.3.1]nonan-7-yl)(methyl)amino)pyridazin-3-yl)-5-(1H-pyrazol-4-yl)phenol]",> 1000 nM
3,"COc1cc(-c2cc(O)c(-c3ccc(N(C)[C@H]4C[C@]5(C)CC[C@](C)(C4)N5)nn3)cc2F)cnn1 [compound 213, 2-(6-(((1R,3s,5S)-1,5-dimethyl-8-azabicyclo[3.2.1]octan-3-yl)(methyl)amino)pyridazin-3-yl)-4-fluoro-5-(6-methoxypyridazin-4-yl)phenol]",< 10 nM
4,"COc1cc(-c2ccc(-c3ccc(N(C)[C@H]4C[C@]5(C)CC[C@](C)(C4)N5)nn3)c(O)c2)ccc1F [compound 210, 4-(6-(((1R,3s,5S)-1,5-dimethyl-8-azabicyclo[3.2.1]octan-3-yl)(methyl)amino)pyridazin-3-yl)-4′-fluoro-3′-methoxy-[1,1′-biphenyl]-3-ol]",251 to 500 nM
5,"CN(c1ccc(-c2ccc(-n3ccc(C#N)c3)cc2O)nn1)[C@H]1C[C@]2(C)CC[C@](C)(C1)N2 [compound 203, 1-(4-(6-(((1R,3s,5S)-1,5-dimethyl-8-azabicyclo[3.2.1]octan-3-yl)(methyl)amino)pyridazin-3-yl)-3-hydroxyphenyl)-1H-pyrrole-3-carbonitrile]",10 to 100 nM
6,"CN(c1ccc(-c2ccc(-c3cc[nH]c(=O)c3)cc2O)nn1)[C@H]1C[C@]2(C)CC[C@](C)(C1)N2 [compound 183, 4-(4-(6-(((1R,3s,5S)-1,5-dimethyl-8-azabicyclo[3.2.1]octan-3-yl)(methyl)amino)pyridazin-3-yl)-3-hydroxyphenyl)pyridin-2(1H)-one]",10 to 100 nM
7,"CN(c1ccc(-c2ccc(-c3cc(=O)n(C)cn3)cc2O)nn1)[C@H]1C[C@]2(C)CC[C@](C)(C1)N2 [compound 194, 6-(4-(6-(((1R,3s,5S)-1,5-dimethyl-8-azabicyclo[3.2.1]octan-3-yl)(methyl)amino)pyridazin-3-yl)-3-hydroxyphenyl)-3-methylpyrimidin-4(3H)-one]",10 to 100 nM
8,"CN(c1ccc(-c2ccc(-c3ncn(C)c(=O)n3)cc2O)nn1)[C@H]1C[C@]2(C)CC[C@](C)(C1)N2 [compound 181, 4-(4-(6-(((1R,3s,5S)-1,5-dimethyl-8-azabicyclo[3.2.1]octan-3-yl)(methyl)amino)pyridazin-3-yl)-3-hydroxyphenyl)-1-methyl-1,3,5-triazin-2(1H)-one]",251 to 500 nM
9,"COc1cccc(-c2ccc(-c3ccc(N(C)[C@H]4C[C@]5(C)CC[C@](C)(C4)N5)nn3)c(O)c2)c1 [compound 209, 4-(6-(((1R,3s,5S)-1,5-dimethyl-8-azabicyclo[3.2.1]octan-3-yl)(methyl)amino)pyridazin-3-yl)-3′-methoxy-[1,1′-biphenyl]-3-ol]",> 1000 nM
10,"CN(c1ccc(-c2cc3ccc(OCF)cc3cc2O)nn1)[C@@H]1C[C@H]2CC[C@@H](C1)N2 [compound 165, 3-(6-(((1R,3s,5S)-8-azabicyclo[3.2.1]octan-3-yl)(methyl)amino)pyridazin-3-yl)-7-(fluoromethoxy)naphthalen-2-ol]",10 to 100 nM

# Same assay, conditions: Homo sapiens, A673, cell viability, read-out: A-673 IC50 (nM), Cell viability
row,Molecule,IC50
1,"CN(c1ccc(-c2cc(F)c(-c3cn[nH]c3)cc2O)nn1)[C@@H]1C[C@H]2CCC[C@@H](C1)N2 [compound 271, 2-(6-(((1R,3s,5S)-9-azabicyclo[3.3.1]nonan-3-yl)(methyl)amino)pyridazin-3-yl)-4-fluoro-5-(1H-pyrazol-4-yl)phenol]",< 10 nM
2,"CNC(=O)c1cc2cc(-c3ccc(N(C)[C@@H]4C[C@H]5CCC[C@@H](C4)N5)nn3)c(O)cc2o1 [compound 297, 5-(6-(((1R,3s,5S)-9-azabicyclo[3.3.1]nonan-3-yl)(methyl)amino)pyridazin-3-yl)-6-hydroxy-N-methylbenzofuran-2-carboxamide]",10 to 100 nM
3,"Cc1nnc(-c2ccc(-c3ccc(O[C@@H]4C[C@H]5CC[C@@H](C4)N5)nn3)c(O)c2)o1 [compound 247, 2-(6-(((1R,3s,5S)-8-azabicyclo[3.2.1]octan-3-yl)oxy)pyridazin-3-yl)-5-(5-methyl-1,3,4-oxadiazol-2-yl)phenol]",> 1000 nM
4,"[2H]C([2H])([2H])Oc1cc(-c2cc(O)c(-c3ccc(N(C)[C@H]4C[C@]5(C)CCC[C@](C)(C4)N5)nn3)cc2F)cnn1 [compound 269, 2-(6-(((1R,3s,5S)-1,5-dimethyl-9-azabicyclo[3.3.1]nonan-3-yl)(methyl)amino)pyridazin-3-yl)-4-fluoro-5-(6-(methoxy-d3)pyridazin-4-yl)phenol]",< 10 nM
5,"CN(c1ccc(-c2ccc(-c3ccn(C)c(=O)c3)cc2O)nn1)[C@H]1C[C@]2(C)CCC[C@](C)(C1)N2 [compound 259, 4-(4-(6-(((1R,3s,5S)-1,5-dimethyl-9-azabicyclo[3.3.1]nonan-3-yl)(methyl)amino)pyridazin-3-yl)-3-hydroxyphenyl)-1-methylpyridin-2(1H)-one]",< 10 nM
6,"CNC(=O)c1cc2cc(-c3ccc(N(C)[C@H]4C[C@]5(C)CCC[C@](C)(C4)N5)nn3)c(O)cc2o1 [compound 261, 5-(6-(((1R,3s,5S)-1,5-dimethyl-9-azabicyclo[3.3.1]nonan-3-yl)(methyl)amino)pyridazin-3-yl)-6-hydroxy-N-methylbenzofuran-2-carboxamide]",10 to 100 nM
7,"Cc1ncc(-c2ccc(-c3ccc(N(C)[C@@H]4C[C@H]5CC[C@@H](C4)N5)nn3)c(O)c2)cn1 [compound 237, 2-(6-(((1R,3s,5S)-8-azabicyclo[3.2.1]octan-3-yl)(methyl)amino)pyridazin-3-yl)-5-(2-methylpyrimidin-5-yl)phenol]",501 to 1000 nM

# Same assay, conditions: Homo sapiens, A673, cell viability, read-out: A-673 IC50 (nM), cell viability
row,Molecule,IC50
1,"CN(c1ccc(-c2ccc(-c3ccnc(OC(F)F)c3)cc2O)nn1)[C@H]1C[C@]2(C)CCC[C@](C)(C1)N2 [compound 308, 5-(2-(difluoromethoxy)pyridin-4-yl)-2-(6-(((1R,3s,5S)-1,5-dimethyl-9-azabicyclo[3.3.1]nonan-3-yl)(methyl)amino)pyridazin-3-yl)phenol]",501 to 1000 nM

# Same assay, conditions: Homo sapiens, A673, read-out: A-673 cell viability (IC50)
row,Molecule,IC50
1,"CN(c1ccc(-c2ccc(-c3ccn(C)c(=O)c3)cc2O)nn1)[C@H]1C[C@]2(C)CCC[C@](C)(C1)N2 [compound 259, 4-(4-(6-(((1R,3s,5S)-1,5-dimethyl-9-azabicyclo[3.3.1]nonan-3-yl)(methyl)amino)pyridazin-3-yl)-3-hydroxyphenyl)-1-methylpyridin-2(1H)-one]",< 1 nM

# Tested on: FOXM1^A2 mRNA and FOXM1^BC mRNA
# Assay: Splicing assay (FOXM1), qPCR of isoform mRNAs
# Assay type: cell-based
# Settings: FoxM1 A mRNA increase (exon excluded); read-out: Splice EC50 (nM) FoxM1 A mRNA increase (exon excluded)
# Experimental: Various cells lines were treated with the SMSMs described herein. RNA was then isolated, cDNA synthesized, qPCR performed and the levels of various mRNA targets of the SMSMs were determined. In some instances, RNA was isolated, cDNA synthesized, qPCR performed and the levels of mRNA isoforms in the various cell samples were determined.
# On the day of the experiment, a 96-well plate was seeded with the cell lines of interest. The cells were diluted with full growth media to a concentration of 2.0×10^5 cells/mL and 100 μL of cells were added to each well (20,000 cells per well). The cells were treated with a compound immediately after plating.
# The compounds were then added to the cell plate using the HP compound dispenser. In the initial experiment, a top concentration of 10 μM and an 8 point 4-fold dilution scheme was used. The stock compounds were made at a concentration of 5 mM, and the DMSO concentration was set to 0.2%. DMSO was used to normalize all the compound-containing wells and the untreated cells.
# The treated cells were incubated at 37° C. in a 5% CO2 incubator for the desired amount of time. Plates were placed in a plastic bag with a wet paper towel to prevent evaporation.
# RNA was isolated using the Cells to CT kit (ThermoFisher, AM1728). The cells were washed once with 100 μL cold PBS. 50 μL of lysis buffer was added to each well/tube (49.5 μL lysis buffer+0.5 μL DNase I per well/tube). The lysis reaction was mixed and incubated at room temperature for 5 minutes. 5 μL of stop solution was added directly into each cell lysis reaction and mixed by pipetting up and down 5 times. The plates/tubes were incubated at room temperature for 2 minutes then placed on ice if the cDNA synthesis was to be performed immediately. Otherwise, the plates/tubes were stored at −80° C. cDNA synthesis reactions were then performed. Reverse Transcription (RT) Master mix was prepared according to the table below.
# 40 μL RT master mix was added to PCR tubes or plate wells. 10 μL of RNA was added to each tube/well. The RT thermal cycler program was then run and tubes or plate wells were incubated at 37° C. for 1 hour, then at 95° C. for 5 minutes to deactivate the enzyme.
# The qPCR was performed using a QuantStudio 6 instrument (ThermoFisher) and the following cycling conditions and according to the tables below. All samples and standards were analyzed in triplicate. Cycle 1: 2 minutes at 50° C. Cycle 2: 10 minutes at 95° C. Cycle 3 (repeat 40 times): 15 seconds at 95° C., 1 minute at 60° C.
# The determined isoform 2and isoform 1quantities were then be used to determine the isoform 2: […] at the various compound concentrations. The PPIA quantities were used in the normalization to account of cell proliferation effects of the compounds.
# The dilution necessary to make the top standard is calculated. A top concentration 200,000,000 copies/μL of the stock plasmid was prepared in TE buffer. A series of 10-fold dilutions, also in TE, were then made. A total of 5 μL of each standard was used in a qPCR well to generate samples containing 109 copies, […], 10^7copies, 10^6 copies, 10^5 copies, 10^4 copies, 10^3 copies, 10^2 copies, 10^1copies, and 0 copies.
# An assay to measure the FOXM1^A2 mRNA and FOXM1^BC mRNA, or MADD^WT (isoform 4) mRNA and MADD^Ex16 (isoform 3) mRNA, or MAPTau^4R mRNA and MAPTau^3R mRNA simultaneously in cell wells was performed. The RNA values were measured relative to DMSO control and also included a housekeeping gene, PPIA to ensure data was consistent. The mRNA values were measured after 24 hours of incubation with the SMSM compounds.
row,Molecule,EC50
1,"2-(6-(((1R,3s,5S)-1,5-dimethyl-8-azabicyclo[3.2.1]octan-3-yl)(methyl)amino)pyridazin-3-yl)-5-(4-methyl-1H-imidazol-1-yl)phenol [compound 177]",< 10 nM

# Same assay, conditions: FoxM1 BC mRNA decrease (exon included); read-out: Splice IC50 (nM) FoxM1 BC mRNA decrease (exon included)
row,Molecule,IC50
1,"2-(6-(((1R,3s,5S)-1,5-dimethyl-8-azabicyclo[3.2.1]octan-3-yl)(methyl)amino)pyridazin-3-yl)-5-(4-methyl-1H-imidazol-1-yl)phenol [compound 177]",< 10 nM
